Test [1] deals with T1, human EP1 receptor (Homo sapiens, UniProt P34995).
T1 construct: expressed in transfected cells; host or cells: CHO-K1
T1 sequence (P34995 1-402): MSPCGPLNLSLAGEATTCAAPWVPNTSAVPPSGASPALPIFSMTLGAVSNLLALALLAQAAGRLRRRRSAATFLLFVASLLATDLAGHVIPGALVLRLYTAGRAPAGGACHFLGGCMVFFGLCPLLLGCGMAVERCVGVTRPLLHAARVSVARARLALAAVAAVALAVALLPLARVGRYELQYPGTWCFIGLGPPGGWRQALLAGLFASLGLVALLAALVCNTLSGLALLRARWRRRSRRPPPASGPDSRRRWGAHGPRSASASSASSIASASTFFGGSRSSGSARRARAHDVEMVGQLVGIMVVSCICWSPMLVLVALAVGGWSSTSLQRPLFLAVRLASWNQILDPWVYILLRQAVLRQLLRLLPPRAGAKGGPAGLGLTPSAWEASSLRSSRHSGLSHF
In words: Binding assay for the human prostanoid EP1 receptor (competition with [3H]-PGE2). The settings on record: binding to human EP1 receptor, CHO-K1 membranes, [3H]-PGE2 3 nM; averages of a number of experiments. On the procedure:
Competition assay using [^3H]-PGE2.
Compound potencies are determined using a radioligand binding assay. In this assay compound potencies are determined from their ability to compete with tritiated prostaglandin E2 ([^3H]-PGE2) for binding to the human EP1 receptor. This assay utilises Chinese hamster ovary-K1 (CHO-K1) cells into which a stable vector containing the EP1 cDNA has previously been transfected. Cells are cultured in suitable flasks containing culture medium such as DMEM:F-12 supplemented with 10% v/v foetal calf serum, 2 mM L-glutamine, 0.25 mg/ml geneticin, 10 μg/ml puromycin and 10 μM indomethacin.
Cells are detached from the culture flasks by incubation in calcium and magnesium free phosphate buffered saline containing 1 mM disodium ethylenediaminetetraacetic acid (Na2EDTA) and 10 μM indomethacin for 5 min. The cells are isolated by centrifugation at 250×g for 5 mins and suspended in an ice cold buffer such as 50 mM Tris, 1 mM Na2EDTA, 140 mM NaCl, 10 μM indomethacin (pH 7.4). The cells are homogenised using a Polytron tissue disrupter (2×10 s burst at full setting), centrifuged at 48,000×g for 20 mins and the pellet containing the membrane fraction is washed (optional) three times by suspension and centrifugation at 48,000×g for 20 mins. The final membrane pellet is suspended in an assay buffer such as 10 mM 2-[N-morpholino]ethanesulphonic acid, 1 mM Na2EDTA, 10 mM MgCl2 (pH 6). Aliquots are frozen at −80° C. until required.
For the binding assay the cell membranes, competing compounds and [^3H]-PGE2 (3 nM final assay concentration) are incubated in a final volume of 100 μl for 30 min at 30° C. All reagents are prepared in assay buffer. Reactions are terminated by rapid vacuum filtration over GF/B filters using a Brandell cell harvester. The filters are washed with ice cold assay buffer, dried and the radioactivity retained on the filters is measured by liquid scintillation counting in Packard TopCount scintillation counter.
The data are analysed using non linear curve fitting techniques to determine the concentration of compound producing 50% inhibition of specific binding (IC50).

In the next test the target is T2, human EP3 receptor (Homo sapiens, UniProt P43115).
T2 construct: expressed in transfected cells; host or cells: CHO-K1
T2 sequence (P43115 1-390): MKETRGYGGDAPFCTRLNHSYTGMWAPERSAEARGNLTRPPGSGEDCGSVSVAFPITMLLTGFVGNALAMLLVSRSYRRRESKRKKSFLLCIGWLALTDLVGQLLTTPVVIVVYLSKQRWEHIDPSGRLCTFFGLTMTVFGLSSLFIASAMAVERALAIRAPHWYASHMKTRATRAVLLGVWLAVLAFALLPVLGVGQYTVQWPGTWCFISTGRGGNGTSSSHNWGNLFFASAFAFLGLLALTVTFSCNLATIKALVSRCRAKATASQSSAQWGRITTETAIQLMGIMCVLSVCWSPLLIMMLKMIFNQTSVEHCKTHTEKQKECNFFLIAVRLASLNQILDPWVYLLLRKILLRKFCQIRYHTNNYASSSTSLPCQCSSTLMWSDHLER
In words: human EP3 calcium mobilisation assay. As to conditions: heading: functional pKi; human EP3, CHO-K1 cells, PGE2-induced calcium mobilisation; averages of a number of experiments. In kind it is cell-based. On the procedure:
(§1) Briefly, the antagonist properties of compounds are assessed by their ability to inhibit the mobilisation of intracellular calcium ([Ca^2+]i) in response to activation of EP1 or EP3 receptors by the natural agonist hormone prostaglandin E2 (PGE2). Increasing concentrations of antagonist reduce the amount of calcium that a given concentration of PGE2 can mobilise. The net effect is to displace the PGE2 concentration-effect curve to higher concentrations of PGE2. The amount of calcium produced is assessed using a calcium-sensitive fluorescent dye such as Fluo-4, AM and a suitable instrument such as a Fluorimetric Imaging Plate Reader (FLIPR). Increasing amounts of [Ca^2+]i produced by receptor activation increase the amount of fluorescence produced by the dye and give rise to an increasing signal. The signal may be detected using the FLIPR instrument and the data generated may be analysed with suitable curve-fitting software.
(§2) The human EP1 or EP3 calcium mobilisation assay (hereafter referred to as ‘the calcium assay’) utilises Chinese hamster ovary-K1 (CHO-K1) cells into which a stable (pCIN; BioTechniques 20 (1996): 102-110) vector containing either EP1 or EP3 cDNA has previously been transfected. Cells are cultured in suitable flasks containing culture medium such as DMEM:F-12 supplemented with 10% v/v foetal calf serum, 2 mM L-glutamine, 0.25 mg/ml geneticin, 100 μM flurbiprofen and 10 μg/ml puromycin.
(§3) For assay, cells are harvested using a proprietary reagent that dislodges cells such as Versene. Cells are re-suspended in a suitable quantity of fresh culture media for introduction into a 384-well plate. Following incubation for 24 hours at 37° C. the culture media is replaced with a medium containing Fluo-4 and the detergent pluronic acid, and a further incubation takes place. Concentrations of compounds are then added to the plate in order to construct concentration-effect curves. This may be performed on the FLIPR in order to assess the agonist properties of the compounds. Concentrations of PGE2 are then added to the plate in order to assess the antagonist properties of the compounds.
(§4) The data so generated may be analysed by means of a computerised curve-fitting routine. The concentration of compound that elicits a half-maximal inhibition of the calcium mobilisation induced by PGE2 (pIC50) may then be estimated.

Test [2] has as its target T1, human EP1 receptor. In words: human EP1 calcium mobilisation assay. In kind it is cell-based. As to conditions: human EP1, CHO-K1 cells, PGE2-induced calcium mobilisation; averages of a number of experiments; read-out: functional pKi (converted). On the procedure: as §1, §2, §3, §4

pIC50, pKi: −log10 of the molar value. Structures can show the parent of a compound that is named as a salt. A value given as a limit tells only on which side of the number the result lay.

For the compound `CC(C)Cc1cn(-c2nc(-c3nc4cc(CO)ccc4[nH]3)cs2)c2cc(Cl)ccc12` [Example 45, (2-{2-[6-Chloro-3-isobutyl-1H-indol-1-yl]-1,3-thiazol-4-yl}-1H-benzimidazol-5-yl)methanol hydrochloride], the pIC50 on human EP1 receptor [1] is at least 7.00. The pKi at human EP3 receptor is under 5.50.

Turning to `CC(C)Cc1cn(Cc2nc(-c3nc4ccccc4[nH]3)cs2)c2cc(Cl)ccc12` [Example 40, 2-(2-{[6-Chloro-3-isobutyl-1H-indol-1-yl]methyl}-1,3-thiazol-4-yl)-1H-benzimidazole hydrochloride], at human EP1 receptor [1], the pIC50 was at least 7.00. In addition, at human EP1 receptor [2], the Ki was at most 0.1 µM.

Compound `CC(C)Cc1cn(-c2nc(-c3nc4cnccc4[nH]3)cs2)c2cc(Cl)ccc12` [Example 43, 2-{2-[6-Chloro-3-isobutyl-1H-indol-1-yl]-1,3-thiazol-4-yl}-1H-imidazo[4,5-c]pyridine hydrochloride] gave a pIC50 at human EP1 receptor [1] of at least 7.00. Further, the Ki at human EP1 receptor [2] was at most 0.1 µM.

For `CC(C)Cc1cn(-c2nc(-c3nc4c(CO)cccc4[nH]3)cs2)c2cc(Cl)ccc12` [Example 46, (2-{2-[6-Chloro-3-isobutyl-1H-indol-1-yl]-1,3-thiazol-4-yl}-1H-benzimidazol-4-yl)methanol], the Ki at human EP1 receptor [2] is at most 0.1 µM. Also, the pKi on human EP3 receptor is under 5.50.

Consider `CC(C)Cc1cn(-c2nc(-c3nc4ccccc4[nH]3)co2)c2cc(Cl)ccc12` [Example 36, 2-{2-[6-Chloro-3-isobutyl-1H-indol-1-yl]-1,3-oxazol-4-yl}-1H-benzimidazole hydrochloride], for which the pIC50 at human EP1 receptor [1] was at least 7.00. Moreover, the pKi on human EP3 receptor is under 5.50.

In the case of `CC(C)Cc1cn(-c2nc(NC(=O)c3cccnc3)cs2)c2cc(Cl)ccc12` [Example 6, N-[2-(6-Chloro-3-isobutyl-1H-indol-1-yl)-1,3-thiazol-4-yl]nicotinamide], the negative logarithm of the Ki (pKi) at human EP3 receptor is under 5.50.

`CC(C)Cc1cn(-c2nc(C(=O)Nc3ccncc3)cs2)c2cc(Cl)ccc12` [Example 25, 2-[6-Chloro-3-isobutyl-1H-indol-1-yl]-N-4-pyridinyl-1,3-thiazole-4-carboxamide]: the pKi on human EP3 receptor is under 5.50.

In turn, `CC(C)Cc1cn(-c2nc(-c3nc4ccccc4[nH]3)cs2)c2cc(Cl)ccc12` [Example 35, 2-{2-[6-Chloro-3-isobutyl-1H-indol-1-yl]-1,3-thiazol-4-yl}-1H-benzimidazole hydrochloride] had a pIC50 at human EP1 receptor [1] of at least 7.00. Further, the Ki at human EP1 receptor [2] was at most 0.1 µM.

Take `CC(C)Cc1cn(-c2nc(-c3nc4ccccc4[nH]3)cs2)c2cc(C(F)(F)F)ccc12` [Example 41, 2-{2-[3-Isobutyl-6-(trifluoromethyl)-1H-indol-1-yl]-1,3-thiazol-4-yl}-1H-benzimidazole]: on human EP1 receptor [1], the pIC50 is at least 7.00. At human EP1 receptor [2], the Ki is at most 0.1 µM.

As to `CC(C)Cc1cn(-c2nc(NC(=O)c3ccc(CO)cc3)cs2)c2cc(Cl)ccc12` [Example 9, N-[2-(6-Chloro-3-isobutyl-1H-indol-1-yl)-1,3-thiazol-4-yl]-4-(hydroxymethyl)benzamide], the pKi at human EP3 receptor is under 5.50.

Consider `CC(C)Cc1cn(-c2nc(-c3nnc[nH]3)cs2)c2cc(Cl)ccc12` [Example 54, 3-[2-(6-Chloro-3-isobutyl-1H-indol-1-yl)-1,3-thiazol-4-yl]-4H-1,2,4-triazole], for which the pKi on human EP3 receptor was under 5.50.

`CC(C)Cc1cn(-c2nc(-c3nc4ccccc4[nH]3)cs2)c2cc(Br)ccc12` [Example 38, 2-{2-[6-Bromo-3-isobutyl-1H-indol-1-yl]-1,3-thiazol-4-yl}-1H-benzimidazole hydrochloride]: on human EP1 receptor [1], the pIC50 was at least 7.00. Also, the Ki at human EP1 receptor [2] was at most 0.1 µM.

On to `CC(C)Cc1cn(-c2nc(C(=O)Nc3ccccc3CO)cs2)c2cc(Cl)ccc12` [Example 20, 2-[6-Chloro-3-isobutyl-1H-indol-1-yl]-N-[2-(hydroxymethyl)phenyl]-1,3-thiazole-4-carboxamide], for which the pIC50 on human EP1 receptor [1] was at least 7.00. Further, at human EP1 receptor [2], the Ki was at most 0.1 µM.

Consider `CC(=O)OCc1ccc(C(=O)Nc2csc(-n3cc(CC(C)C)c4ccc(Cl)cc43)n2)cc1` [Example 56, {4-[({2-[6-Chloro-3-(2-methylpropyl)-1H-indol-1-yl]-1,3-thiazol-4-yl}amino)carbonyl]phenyl}methyl acetate], for which, on human EP3 receptor, the pKi is under 5.50.

For the compound `CCCNC(=O)Nc1csc(-n2cc(CC(C)C)c3ccc(Cl)cc32)n1` [Example 10, N-[2-(6-Chloro-3-isobutyl-1H-indol-1-yl)-1,3-thiazol-4-yl]-N′-propylurea], at human EP3 receptor, the pKi is under 5.50.

`CC(C)Cc1cn(-c2nc(C(N)=O)cs2)c2cc(Cl)ccc12` [Example 30, 2-[6-Chloro-3-isobutyl-1H-indol-1-yl]-1,3-thiazole-4-carboxamide]: the Ki at human EP1 receptor [2] was at most 0.1 µM.

Take `CC(C)Cc1cn(-c2nc(C(=O)N3CCCC3)cs2)c2cc(Cl)ccc12` [Example 11, 6-Chloro-3-isobutyl-1-[4-(1-pyrrolidinylcarbonyl)-1,3-thiazol-2-yl]-1H-indole]: the Ki on human EP1 receptor [2] was at most 0.1 µM.

As for `CC(C)Cc1cn(-c2nc(C(=O)NCCCO)cs2)c2cc(Cl)ccc12` [Example 26, 2-[6-Chloro-3-isobutyl-1H-indol-1-yl]-N-(3-hydroxypropyl)-1,3-thiazole-4-carboxamide], the Ki at human EP1 receptor [2] was at most 0.1 µM.

Consider `CC(C)Cc1cn(-c2nc(C(=O)Nc3ccc(CO)cc3)cs2)c2cc(Br)ccc12` [Example 12, 2-[6-Bromo-3-isobutyl-1H-indol-1-yl]-N-[4-(hydroxymethyl)phenyl]-1,3-thiazole-4-carboxamide], for which the pIC50 on human EP1 receptor [1] is at least 7.00. At human EP1 receptor [2], the Ki is at most 0.1 µM.

Turning to `Cc1nnc(-c2csc(-n3cc(CC(C)C)c4ccc(Cl)cc43)n2)[nH]1` [Example 55, 3-[2-(6-Chloro-3-isobutyl-1H-indol-1-yl)-1,3-thiazol-4-yl]-5-methyl-4H-1,2,4-triazole], at human EP1 receptor [1], the pIC50 was at least 7.00. Further, on human EP3 receptor, the pKi is under 5.50.

The values above are taken from patent US20090298866A1, “Indole Compounds” (priority 2006, published 2009).
